Measurements reported in ChEMBL document CHEMBL1201862, “PubChem BioAssay data set” (2004).
The source made the active and inactive calls.

Tests used:
[1] = biological target: Heat shock protein HSP 90-alpha (Homo sapiens, UniProt P07900); type: functional, organism-based
[2] = fluconazole-exposed Candida albicans growth modulators – fluorescence, retest, confirmation (AID 2467); type: functional, cell-based
INS1 = experiment: INS-1E survival protection against cytokine death – cell-based, luminescence, retest, dose response (AID 449756); type: functional; conditions: Rattus norvegicus;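 note: cell death triggered by IL-1 beta plus TNF-alpha plus IFN-gamma mixture; protective hits raise ATP signal compared with cytokine alone wells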
[3] = NIH-3T3 fibroblast cytotoxicity, dose response, cytotoxicity control, cell-based, fluorescence, Alamar Blue, secondary assay (AID 2327); type: functional;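 note: NIH-3T3 mouse fibroblasts cultured with fluconazole at 8 µg/mL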
[4] = biological target: T1, Apoptotic protease-activating factor 1 (Homo sapiens, UniProt O14727); type: functional
T1 sequence (O14727 whole entry): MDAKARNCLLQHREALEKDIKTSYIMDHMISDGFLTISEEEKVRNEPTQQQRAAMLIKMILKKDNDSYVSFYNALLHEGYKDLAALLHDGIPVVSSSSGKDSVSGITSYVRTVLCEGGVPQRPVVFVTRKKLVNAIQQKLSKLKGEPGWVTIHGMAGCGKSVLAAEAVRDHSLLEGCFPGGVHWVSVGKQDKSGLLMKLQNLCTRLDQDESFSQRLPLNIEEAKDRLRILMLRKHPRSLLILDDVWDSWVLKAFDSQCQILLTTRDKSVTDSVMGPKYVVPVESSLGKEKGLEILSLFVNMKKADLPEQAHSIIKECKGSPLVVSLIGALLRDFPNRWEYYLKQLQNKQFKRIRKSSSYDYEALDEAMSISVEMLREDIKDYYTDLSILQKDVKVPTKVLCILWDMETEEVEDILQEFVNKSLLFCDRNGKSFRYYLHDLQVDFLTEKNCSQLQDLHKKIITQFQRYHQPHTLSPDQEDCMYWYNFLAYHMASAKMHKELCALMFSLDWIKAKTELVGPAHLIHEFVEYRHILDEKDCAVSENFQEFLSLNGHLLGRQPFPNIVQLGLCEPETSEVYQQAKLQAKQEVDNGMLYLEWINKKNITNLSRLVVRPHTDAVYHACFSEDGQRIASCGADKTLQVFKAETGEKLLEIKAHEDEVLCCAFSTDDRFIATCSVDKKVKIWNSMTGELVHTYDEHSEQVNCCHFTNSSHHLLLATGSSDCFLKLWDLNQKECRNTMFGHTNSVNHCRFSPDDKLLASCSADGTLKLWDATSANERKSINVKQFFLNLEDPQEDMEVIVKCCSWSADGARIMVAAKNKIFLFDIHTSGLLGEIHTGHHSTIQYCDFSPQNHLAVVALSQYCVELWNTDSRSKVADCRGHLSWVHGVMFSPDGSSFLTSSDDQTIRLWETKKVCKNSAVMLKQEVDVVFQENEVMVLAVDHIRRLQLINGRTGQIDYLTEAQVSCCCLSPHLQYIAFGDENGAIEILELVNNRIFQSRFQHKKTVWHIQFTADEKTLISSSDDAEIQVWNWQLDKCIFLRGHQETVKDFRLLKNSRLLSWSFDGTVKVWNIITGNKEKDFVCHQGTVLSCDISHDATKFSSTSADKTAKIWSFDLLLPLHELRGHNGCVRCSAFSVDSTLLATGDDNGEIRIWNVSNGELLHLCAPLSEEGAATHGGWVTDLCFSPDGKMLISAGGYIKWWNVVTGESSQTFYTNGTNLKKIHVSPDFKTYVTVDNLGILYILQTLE

Protein RecA = biological target: T2, Protein RecA (Mycobacterium tuberculosis, UniProt P9WHJ3); experiment: Fluorescence Cell-Free Homogeneous Dose Retest to Identify Inhibitors of RecA-Intein Splicing Activity. [Related pubchem assays (depositor defined):AID2097, AID2223, AID489010, AID492950]; type: functional
T2 sequence (P9WHJ3 whole entry): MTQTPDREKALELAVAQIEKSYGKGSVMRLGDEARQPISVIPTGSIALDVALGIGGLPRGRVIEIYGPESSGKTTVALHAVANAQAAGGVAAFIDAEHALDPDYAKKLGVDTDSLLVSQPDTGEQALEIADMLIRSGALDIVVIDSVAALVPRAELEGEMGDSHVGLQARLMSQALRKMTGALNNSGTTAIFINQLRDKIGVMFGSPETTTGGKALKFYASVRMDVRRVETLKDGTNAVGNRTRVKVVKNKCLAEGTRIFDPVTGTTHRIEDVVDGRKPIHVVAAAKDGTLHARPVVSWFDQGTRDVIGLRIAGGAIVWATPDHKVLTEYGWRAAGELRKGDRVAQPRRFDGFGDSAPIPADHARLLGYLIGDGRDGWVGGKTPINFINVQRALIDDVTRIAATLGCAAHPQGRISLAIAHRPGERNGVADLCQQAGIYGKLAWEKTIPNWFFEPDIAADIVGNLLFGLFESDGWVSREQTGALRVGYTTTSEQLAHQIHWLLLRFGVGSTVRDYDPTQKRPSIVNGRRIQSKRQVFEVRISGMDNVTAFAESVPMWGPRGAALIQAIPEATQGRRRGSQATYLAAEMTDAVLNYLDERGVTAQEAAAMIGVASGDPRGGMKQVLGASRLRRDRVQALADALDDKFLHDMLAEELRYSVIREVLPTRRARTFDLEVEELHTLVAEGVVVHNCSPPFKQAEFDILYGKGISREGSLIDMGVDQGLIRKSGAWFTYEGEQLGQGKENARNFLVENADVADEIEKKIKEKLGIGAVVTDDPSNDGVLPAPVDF

SMILES	AC50 [1]	EC50 [2]	AC50 (INS1)	EC50 [3]	IC50 [4]	EC50 (Protein RecA)
CC(C)CC(=O)NC(c1cccs1)c1ccc2cccnc2c1O (stereo not given)	3.78 µM (active)	0.58 µM (active)	0.862 µM (active)	24.3 µM (active)		
CCOC(=O)c1ccc(NC2=CC(=O)C(=O)c3ccccc32)cc1					4.73 µM (active)	3.24 µM (active)
OC(CNCCC1C=Nc2ccccc21)Cn1c2ccc(Cl)cc2c2cc(Cl)ccc21 (stereo not given)	8.15 µM (active)	> 38 µM (not active)	7.32 µM (active)	14.3 µM (inconclusive)		9.52 µM (active)
CCCCCCCCCCCCCCCC[N+](C)(C)C	8.33 µM (active)	> 38 µM (not active)	4.84 µM (active)	> 150 µM (inconclusive)	27.5 µM (active)	14.7 µM (active)
COc1ccc(C(=O)c2nccc3cc(OC)c(OC)cc23)cc1OC					24.4 µM (active)	
Cc1ccccc1-c1cc2c(nn1)-c1ccccc1C2=O					25.5 µM (active)	0.891 µM (active)
